Data as given in patent publication US11147881B2, “Controlled drug release liposome compositions and methods thereof” (TAIWAN LIPOSOME COMPANY, LTD., priority 2013, dated 2021).

Assays:
[1] = Precipitation study of vinorelbine with mono- and polyvalent counterion donors; assay type: physicochemical
Protocol: As shown in Example 7, the percentage of encapsulated vinorelbine remaining after plasma incubation is adjustable according to the present invention. The percentage of encapsulated therapeutic agent remaining after plasma incubation can be monitored by precipitation among encapsulated therapeutic agent(s) and counterion donor(s) in the aqueous environment as in FIG. 1, FIG. 5, and FIG. 6. The counterion donors could be selected from monovalent counterion donor(s), polyvalent counterion donor(s), or a combination thereof.
(§1) To examine the precipitation, therapeutic agent solution(s) and counterion donor(s), or therapeutic agent solution(s) and combination of counterion donors were mixed, followed by vigorous agitation and high speed centrifugation to separate insoluble precipitate and free form therapeutic agent(s). The concentration of the free form therapeutic agent(s) was determined by measuring the corresponding absorbance with a plate reader.
(§2) Various compositions were prepared by mixing 60 mg/mL of vinorelbine solution and liposomes with 1 mM to 22.5 mM of dextran sulfate (molecular weight 1,600), or with 300 mM of ammonium sulfate and 1 mM to 22.5 mM of dextran sulfate (molecular weight 1,600), followed by vigorous agitation by vortex and centrifugation at 21,460×g for 30 minutes to separate insoluble precipitate from free-form vinorelbine. The volume ratio for mixing the vinorelbine solution and the counterion donor solution was 1:2, with the final equivalent counterion donor concentrations shown in Table 12.

[2] = Precipitation study of irinotecan with mono- and polyvalent counterion donors; assay type: physicochemical
Protocol: as §1
as §2, with “irinotecan” for “vinorelbine”, “irinotecan.” for “vinorelbine.”, “13.” for “12.”

[3] = AS = 0 mM, DS = 0.67 mM (5.27 mEq/L)
[4] = AS = 0 mM, DS = 2.5 mM (19.68 mEq/L)
[5] = AS = 0 mM, DS = 5 mM (39.35 mEq/L)
[6] = AS = 0 mM, DS = 15 mM (118.05 mEq/L)
[7] = AS = 200 mM, DS = 0 mM (0 mEq/L)
[8] = AS = 200 mM, DS = 0.67 mM (5.27 mEq/L)
[9] = AS = 200 mM, DS = 2.5 mM (19.68 mEq/L)
[10] = AS = 200 mM, DS = 5 mM (39.35 mEq/L)
[11] = AS = 200 mM, DS = 15 mM (118.05 mEq/L)

## CCC1=C[C@@H]2CN(C1)Cc1c([nH]c3ccccc13)[C@@](C(=O)OC)(c1cc3c(cc1OC)N(C)[C@H]1[C@@](O)(C(=O)OC)[C@H](OC(C)=O)[C@]4(CC)C=CCN5CC[C@]31[C@@H]54)C2 [vinorelbine]
[1]; AS = 0 mM, DS = 0 mM
  Percentage of free-form VNB remaining: 100.7%
[1]; [3]
  Percentage of free-form VNB remaining: 87.1%
[1]; [4]
  Percentage of free-form VNB remaining: 54.0%
[1]; [5]
  Percentage of free-form VNB remaining: 11.0%
[1]; [6]
  Percentage of free-form VNB remaining: 5.4%
[1]; [7]
  Percentage of free-form VNB remaining: 97.6%
[1]; [8]
  Percentage of free-form VNB remaining: 83.3%
[1]; [9]
  Percentage of free-form VNB remaining: 59.0%
[1]; [10]
  Percentage of free-form VNB remaining: 21.2%
[1]; [11]
  Percentage of free-form VNB remaining: 5.7%
[1]; FIG. 5 left
  visible precipitation with sodium dextran sulfate: precipitation
[1]; FIG. 5 right
  visible precipitation with ammonium sulfate: no visible precipitation
[1]; maximum, at DS of 39.35 mEq/L
  enhancement of free-form vinorelbine by ammonium sulfate (as compared to DS alone): up to 10.2%

## CCc1c2c(nc3ccc(OC(=O)N4CCC(N5CCCCC5)CC4)cc13)-c1cc3c(c(=O)n1C2)COC(=O)[C@]3(O)CC [irinotecan]
[2]; AS = 0 mM, DS = 0 mM
  Percentage of free-form CPT11 remaining: 103.4%
[2]; [3]
  Percentage of free-form CPT11 remaining: 82.0%
[2]; AS = 0 mM, DS = 1.6 mM (12.59 mEq/L)
  Percentage of free-form CPT11 remaining: 50.9%
[2]; [4]
  Percentage of free-form CPT11 remaining: 27.3%
[2]; [5]
  Percentage of free-form CPT11 remaining: 2.3%
[2]; [6]
  Percentage of free-form CPT11 remaining: 3.8%
[2]; [7]
  Percentage of free-form CPT11 remaining: 101.1%
[2]; [8]
  Percentage of free-form CPT11 remaining: 83.8%
[2]; AS = 200 mM, DS = 1.6 mM (12.59 mEq/L)
  Percentage of free-form CPT11 remaining: 59.4%
[2]; [9]
  Percentage of free-form CPT11 remaining: 38.3%
[2]; [10]
  Percentage of free-form CPT11 remaining: 9.7%
[2]; [11]
  Percentage of free-form CPT11 remaining: 9.0%
[2]; FIG. 6 left
  visible precipitation with sodium dextran sulfate: precipitation
[2]; FIG. 6 right
  visible precipitation with ammonium sulfate: no visible precipitation
[2]; maximum, at DS of 19.68 mEq/L
  enhancement of free-form irinotecan by ammonium sulfate (as compared to DS alone): up to 11%
